| SMILES | melting point [°C] |
| --- | --- |
| CC1(C)OC(=O)Nc2sc(-c3cccc(Cl)c3)cc21 [Example 1, 6-(3-chlorophenyl)-1,4-dihydro-4,4-dimethyl-2H-thieno [2,3-d][1,3]oxazine-2-one] | 149 to 150 |
| CC1(C)OC(=O)Nc2cc(-c3cccc(Cl)c3)sc21 [Example 2, 6-(3-chlorophenyl)-1,4-dihydro-4,4-dimethyl-2H-thieno[3,2-d][1,3]oxazine-2-one] | 123 to 125 |
